Results: US20130184273A1, “BICYCLIC PYRIMIDINES” (Bayer Intellectual Property GmbH, priority 2010, published 2013)

Columns and labels:
[1] = tested on: KPL-4 breast cancer cell line; test: Tumor cell proliferation assay (CellTiter-Glo); type: cell-based; settings: KPL4, 72 h drug exposure
Protocol: Compounds were tested in a cell-based assay that measures the capacity of the compounds to inhibit tumour cell proliferation following a 72 h drug exposure. Cell viability is determined using CellTiter-Glow® (CTG, Promega, cat #G7571/2/3). The CellTiter-Glo® Luminescent Cell Viability Assay is a homogeneous method to determine the number of viable cells in culture. Detection is based on using the luciferase reaction to measure the amount of ATP from viable cells. The amount of ATP in cells correlates with cell viability. Within minutes after a loss of membrane integrity, cells lose the ability to synthesize ATP, and endogenous ATPases destroy any remaining ATP; thus the levels of ATP fall precipitously.
Cells were plated at 3000-5000 cells/well (depending on the cell lines) in 90 μL growth medium on MTPs (Corning; #3603, black plate, clear flat bottom). For each cell line assayed, cells were plated onto a separate plate for determination of […] at t=0 hour and t=72 hour time points. Following overnight incubation at 37° C., chemiluminescence values for the t=0 samples were determined after adding 10 μl medium and 100 μl CTG solution according to manufacture protocol. Plates for the t=72 hour time points were treated with compounds diluted into growth medium at ten times final concentration added in 10 μL to the cell culture plate. Cells were then incubated for 72 hours at 37° C. Chemiluminescence values for the t=72 hour samples were determined. […] Experiments were controlled using a reference compound as standard.

[2] = molecular target: T1, His-tagged human recombinant kinase full-length Akt2 (Homo sapiens, UniProt P31751); test: Akt2 kinase assay (TR-FRET); type: biochemical; settings: 10 μM ATP, 60 min at 22° C., read-out: Akt2, median IC50
T1 construct: His-tagged human recombinant kinase full-length Akt2; His; purchased Invitrogen PV 3975; host or cells: insect cells
T1 sequence (P31751 whole entry): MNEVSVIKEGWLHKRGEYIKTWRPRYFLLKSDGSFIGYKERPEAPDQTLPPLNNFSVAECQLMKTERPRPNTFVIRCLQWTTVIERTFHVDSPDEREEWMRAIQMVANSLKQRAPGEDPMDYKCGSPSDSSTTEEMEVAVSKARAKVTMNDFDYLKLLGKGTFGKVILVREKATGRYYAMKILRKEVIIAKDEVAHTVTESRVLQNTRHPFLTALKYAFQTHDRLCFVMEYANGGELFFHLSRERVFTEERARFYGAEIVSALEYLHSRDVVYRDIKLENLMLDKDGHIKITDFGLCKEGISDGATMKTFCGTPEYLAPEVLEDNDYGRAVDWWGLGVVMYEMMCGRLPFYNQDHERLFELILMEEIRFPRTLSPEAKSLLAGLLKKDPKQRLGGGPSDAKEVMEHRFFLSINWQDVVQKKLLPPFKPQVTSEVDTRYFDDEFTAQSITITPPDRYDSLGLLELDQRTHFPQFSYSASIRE
Outline: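 TR-FRET read-out (anti-phosphoserine antibody, Eu-labelled anti-mouse IgG, streptavidin-XL665) of a 60 min, 22 °C reaction using 1 μM biotinylated peptide and 10 μM ATP. Enzyme: PDK1-activated full-length His-Akt2 from insect cells, about 0.2 ng/μl, with 15 min compound pre-binding; data normalised to no-inhibitor and no-enzyme controls.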

IC50 [1] [nM] | IC50 [2] [nM] | SMILES
1270 | 299 | CS(=O)(=O)c1ccc(-c2cnc3nc(-c4ccc(C5(N)CCC5)cc4)c(-c4ccccc4)cn23)cc1 [Example 4-0, 1-{4-[3-(4-Methansulfonyl-phenyl)-6-phenyl-imidazo[1,2-a]pyrimidin-7-yl]-phenyl}-cyclobutylamine]
2540 | 681 | NC1(c2ccc(-c3nc4ncc(-c5ccc(F)cc5)n4cc3-c3ccccc3)cc2)CCC1 [Example 6-0, 1-{4-[3-(4-Fluorophenyl)-6-phenyl-imidazo[1,2-a]pyrimidin-7-yl]-phenyl}-cyclobutylamine]
10000 | 205 | NC(=O)c1cccc(-c2cnc3nc(-c4ccc(C5(N)CCC5)cc4)c(-c4ccccc4)cn23)c1 [Example 6-2, 3-{7-[4-(1-Amino-cyclobutyl)-phenyl]-6-phenyl-imidazo[1,2-a]pyrimidin-3-yl}-benzamide]
5110 | 165 | NC1(c2ccc(-c3nc4ncc(-c5cn[nH]c5)n4cc3-c3ccccc3)cc2)CCC1 [Example 6-3, 1-{4-[6-Phenyl-3-(1H-pyrazol-4-yl)-imidazo[1,2-a]pyrimidin-7-yl]-phenyl}-cyclobutylamine]

The next lines start with the molecule.

SMILES | IC50 [1] [nM] | IC50 [2] [nM]
Cc1cn2cc(-c3ccccc3)c(-c3ccc(C4(N)CCC4)cc3)nc2n1 [Example 2-1, 1-[4-(2-Methyl-6-phenyl-imidazo[1,2-a]pyrimidin-7-yl)-phenyl]-cyclobutylamine] | 1970 | 487
Cc1nc2nc(-c3ccc(C4(N)CCC4)cc3)c(-c3ccccc3)cn2n1 [Example 1-0, 1-[4-(2-methyl-6-phenyl-[1,2,4]triazolo[1,5-a]pyrimidin-5-yl)-phenyl]-cyclobutylamine] | 3220 | 960
Cn1cc(-c2nc3nc(-c4ccc(C5(N)CCC5)cc4)c(-c4ccccc4)cn3n2)cn1 [Example 5-2, 1-{4-[2-(1-methyl-1H-pyrazol-4-yl)-6-phenyl-[1,2,4]triazolo[1,5-a]pyrimidin-5-yl]-phenyl}-cyclobutylamine] | 930 | 340
